Entries after “also recorded” stand apart in the source; their conditions may differ.
Legend:
NIH 3T3 cells = assay: 2-aminopurine effect on viral protein synthesis; type: cell-based, mouse; settings: 5 mM, concurrently with reovirus; label 12 to 48 h postinfection
Experimental: To test this idea, 2-aminopurine was used. […] Accordingly, NIH 3T3 cells were exposed to 5 mM 2-aminopurine concurrently with exposure to reovirus. The cells were labeled with [^35S]methionine from 12 to 48 h postinfection, and lysates were harvested and analyzed by SDS-PAGE.

ERK1/2 phosphorylation = assay: PD98059 effect on ERK1/2 phosphorylation; type: cell-based; settings: 50 μM
Text: The PhosphoPlus p44/42 MAP kinase (Thr202/Tyr204) Antibody kit (New England Biolabs) was used for the detection of MAP kinase in cell lysates according to the manufacturer's instructions. Briefly, subconfluent monolayer cultures were lysed with the recommended SDS-containing sample buffer, and subjected to SDS-PAGE, followed by electroblotting onto nitrocellulose paper. The membrane was then probed with the primary antibody (anti-total MAPK or anti-phospho-MAPK), followed by the horseradish peroxidase (HRP)-conjugated secondary antibody as described in the manufacturer's instruction manual.
(§1) H-Ras-transformed cells were grown to 80% confluency and infected with reovirus at an MOI of approximately 10 p.f.u./cell. PD98059 (Calbiochem), dissolved in dimethylsulfoxide (DMSO), was applied to the cells at the same time as the virus (final concentration of PD98059 was 50 μM). The control cells received an equivalent volume of DMSO. The cells were labeled with ^35S-methionine from 12 to 48 hours post-infection. Lysates were then prepared, immunoprecipitated with the polyclonal anti-reovirus serotype 3 serum and analyzed by SDS-PAGE.
As expected, PD98059 had no effect on reovirus-induced PKR phosphorylation in untransformed NIH-3T3 cells (data not shown).

H-Ras-transformed cells = assay: PD98059 effect on reovirus protein synthesis; type: cell-based; settings: 50 μM, MOI approximately 10 p.f.u./cell, label 12 to 48 hours
Experimental: as §1

PKR = assay: PD98059 effect on PKR phosphorylation; type: cell-based

| SMILES | level of viral protein synthesis (NIH 3T3 cells) | ERK1/2 phosphorylation (ERK1/2 phosphorylation) | effect on viral protein synthesis (H-Ras-transformed cells) | inhibition of reovirus protein synthesis (H-Ras-transformed cells) | PKR phosphorylation state (PKR; infected H-Ras-transformed cells, 50 μM) | effect on reovirus-induced PKR phosphorylation (PKR; untransformed NIH-3T3 cells) |
| --- | --- | --- | --- | --- | --- | --- |
| Nc1ncc2[nH]cnc2n1 [2-aminopurine] | significantly higher level of viral protein synthesis; also recorded: drastic enhancement of reovirus protein synthesis | – | – | – | – | – |
| COc1cccc(-c2cc(=O)c3ccccc3o2)c1N [PD98059] | – | effectively inhibited ERK1/2 phosphorylation | slight enhancement of viral protein synthesis | did not inhibit reovirus protein synthesis | remained unphosphorylated | no effect |
